# Read-outs that look alike come from different tables or passages of the source.
# Experiments:
# [1] = tested on: IDMS cells (HMLE_shEcad, HMLE_Twist) versus control HMLE_shGFP cells; assay: Dose-response cell survival, ATP-based luminescence assay, HMLE cells; parameters: species or system human; conditions: for killing of IDMS cells relative to control HMLE cells: 3 days, FIG. 3B, 3C
# Procedure: (B) Dose response curves of HMLE_shGFP, HMLE_shEcad and HMLE_Twist cells treated with various concentrations of Cmp302, Cmp308 and Dev4, respectively for 3 days. Cell survival was determined using an ATP-based luminescence assay.
# (B) Dose-response curves of HMLE_shGFP, HMLE_shEcad and HMLE_Twist cells treated with various concentrations of Thapsigargin, DTT and A23187 for 3 days. Cell survival was determined using an ATP-based luminescence assay.
# (B) Dose-response curves indicating viability of Dev2-treated cell lines
# (§1) Cells (3000/well) were plated in 100 μl per well in 96-well plates. One day (24 hr) after seeding, compounds were added in 8 different doses at three replicates per dose for each cell line. Cell viability was measured after 72 hr with the CellTiter-Glo […] Assay (Promega). Paclitaxel, Doxorubicin, Tunicamycin, Thapsigargin, A23187 and DTT were purchased from Sigma Aldrich. Cmp302 and Cmp308 were purchased from Biointerscreen.
# [2] = tested on: UPR signaling in HMLER_shGFP and HMLER_Twist cells; assay: UPR signaling (Western blot, XBP1 RT-PCR, ATF6 reporter, qPCR); type: cell-based, human
# Procedure: (A) Expression of UPR pathway components in HMLER_shGFP and HMLER_Twist cells that were treated with Dev2, Cmp302, Dev4 or DMSO solvent for 6 h. Western blot analysis for phospho-eIF2α, total eIF2α, CHOP and β-Tubulin. RT-PCR analysis of XBP1 and XBP1 splice variant and GAPDH transcripts.
# (D) Western blot analysis of HMLER_shGFP and HMLER_Twist cells treated with vehicle (DMSO), DTT or A23187 for 4 h and probed for p-eIF2α, total eIF2α, CHOP and β-Tubulin (loading control). RT-PCR analysis of XBP1 and XBP1 splice variant and GAPDH transcripts.
# (E) Western blot analysis of HMLER_shGFP and HMLER_Twist cells treated with vehicle (DMSO), Tunicamycin or Thapsigargin for 4 h and probed for p-eIF2α, total eIF2α, CHOP and β-Tubulin (loading control). RT-PCR analysis of XBP1 and XBP1 splice variant and GAPDH transcripts.
# Reporter activity for each cell line was normalized relative to DMSO treatment.
# BIP expression was normalized relative to GAPDH for each sample.
# (C) ATF6 activation of HMLER_shGFP and HMLER_Twist cells in response to Tunicamycin, Thapsigargin, DTT and A23187 were measured by ATF6 reporter assay. Reporter activity for each cell line was normalized relative to DMSO treatment.
# (D) qPCR analysis for BIP expression in HMLER_shGFP and HMLER_Twist cells treated with Thapsigargin and DTT. BIP expression was normalized relative to GAPDH for each sample.
# (E) qPCR analysis for expression of GADD34 in HMLER_shGFP and HMLER_Twist cells treated with Thapsigargin and DTT. GADD34 expression was normalized relative to GAPDH for each sample.
# Western blotting was performed as previously described (Gupta et al., 2009). Antibodies used for immunoblotting were as follows: E-cadherin (BD Transduction), Fibronectin (Abcam), Actin, Cytokeratin 8/18, PERK, eIF2α, peIF2α, CHOP, Caspase-3 and Bip (Cell Signal Technology).
# p5xATF6-GL3 and hRluc constructs were obtained from Addgene (plasmids 11976 and 24348, provided by Drs. Ron Prywes and Liqun Luo, resp.). 24 hours after co-transfection of 0.3 μg p5xATF6-GL3 and 0.05 μg hRluc plasmids, cells were treated with indicated compounds for another 6 hours, and ATF6 activity was measured by a dual luciferase assay (Promega).
# SUM159 cancer cells [3] = assay: Tumorsphere formation of pretreated SUM159 cells; type: cell-based, human; conditions: pretreatment 3 days (1 μg/ml Tunicamycin, 10 nM Thapsigargin), 3 days recovery
# Procedure: (A) Representative brightfield images and quantification of tumorsphere formation of SUM159 cancer cells treated with 5 nM Paclitaxel, 1 μg/ml Tunicamycin, 10 nM Thapsigargin, or DMSO vehicle for 3 days followed by another 3 days of recovery in regular medium. Scale bar: 50 μm
# Mammosphere formation assays were performed as described (Dontu et al., 2003), but with 0.6% methylcellulose (Stem Cell Technologies). Five thousand cells were plated per well in low-adherence 24-well plates and cultured for 5-8 days prior to being counted and photographed.
# (§2) To determine whether chemical ER perturbants could abrogate the malignancy of IDMS cells, SUM159 cancer cells (derived from a primary anaplastic Basal-B breast carcinoma) were treated with tunicamycin, thapsigargin or paclitaxel at their respective IC75 doses. Cells were then allowed to recover in the absence of treatment prior to subjecting them to functional assays for IDMS-related phenotypes.
# [4] = tested on: protein secretion of SUM159 cells; assay: 35S-methionine/cysteine labeling of secreted proteins, pretreated SUM159 cells; type: cell-based, human; conditions: pretreatment 3 days, recovery 3 days
# Procedure: (B) Autoradiograph showing ^35S-methionine/cysteine-labeled secreted proteins in SUM159 cells that were pretreated with 1 μg/ml Tunicamycin, 10 nM Thapsigargin, 0.1 μM A23187 or DMSO vehicle for 3 days and allowed to recover in the absence of chemical for 3 days prior to the ^35S-methionine/cysteine labeling.
# (§3) Equal numbers of cells were cultured in the presence of ^35S-methionine/cysteine in medium with reduced methionine/cysteine content and minimal serum. At the indicated timepoints, aliquots of medium were extracted for analysis. Medium was centrifuged at 800×g for 2 min to pellet any whole cell contaminants. Equal volume of medium was reduced in loading buffer, separated by SDS-PAGE and analyzed by autoradiography.
# SUM159 cancer cells [5] = assay: Transwell migration of pretreated SUM159 cells; type: cell-based, human; conditions: 5 h migration
# Procedure: (B) Representative images of crystal violet staining of SUM159 cells following transwell migration assay. Transwell migration assay was performed on SUM159 cancer cells treated as in (A). Cells that have migrated for 5 h following seeding into 8 μm pore inserts were visualize and quantified. Scale bar: 50 μm
# as §2
# SUM159 cells = assay: Dose-response of pretreated SUM159 cells to paclitaxel or doxorubicin; type: cell-based, human; conditions: pretreated SUM159, then paclitaxel or doxorubicin 3 days; FIG. 7D
# Procedure: (D) Dose-response curves of SUM159 cells pre-treated as in (C) and then treated with 8 doses of paclitaxel or doxorubicin for 3 days. Cell survival was determined using an ATP-based luminescence assay.
# as §1
# [6] = tested on: HMLER_shGFP and HMLER_Twist cells; assay: Viability with thapsigargin in presence or absence of salubrinal; type: cell-based, human; conditions: 10 μM salubrinal, 3 days; FIG. 6F
# Procedure: (F) Relative viability of HMLER_shGFP and HMLER_Twist cells treated with increasing doses of thapsigargin in the presence or absence of 10 μM salubrinal for 3 days. Cell viability was assayed with an ATP-based luminescence assay.
# as §1
# [7] = tested on: HMLE_Twist_GFP / HMLE_shEcad_GFP cells mixed 1:1 with HMLE_shGFP_dsRed cells; assay: Co-culture of GFP-labeled IDMS cells with dsRed-labeled control epithelial cells; type: cell-based, human; conditions: 1:1 co-culture, 5 days treatment; FIGS. 1D and E
# Procedure: (D) Representative fluorescence images of HMLE_shGFP_dsRed and HMLE_Twist_GFP cells were mixed in a 1:1 ratio and treated with 5 nM Paclitaxel, 2 μM Cmp302, 2 μM Cmp308 or DMSO control. Images after 5 days of treatment are shown. Scale bar: 50 μm
# (E) Quantification of HMLE_shGFP_dsRed and HMLE_shEcad_GFP cells that were mixed in a 1:1 ratio and treated with Doxorubicin or Dev4. Following a 5 day treatment, the percentages of dsRed-positive and GFP-positive cells were quantified by FACS.
# Even though Cmp302 and Cmp308 were selective for IDMS cells when cultured alone, tumors are comprised of heterogeneous populations of cells that could affect the sensitivity or selectivity of the applied chemicals. Therefore GFP-labeled IDMS cells were co-cultured with dsRed-labeled control epithelial cells and then applied Cmp302 and Cmp308.
# MDA-MB-157 cells = assay: Dose-response cell survival of MDA-MB-157 cells in suspension versus adherent culture; type: cell-based, human; conditions: 3 days; FIG. 1I
# Procedure: (I) Dose-response curves of MDA-MB-157 cells cultured in adherent or suspension conditions and treated with 8 doses of paclitaxel, Cmp302 or Cmp308 for 3 days. Cell survival was determined using an ATP-based luminescence assay.
# as §1
# Next, it was determined whether the preferential toxicity of these compounds was unique to the oncogenic modifications of the HMLE breast epithelial cell system. Accordingly, a model was developed in which human breast carcinoma cells progressed towards the IDMS state in the absence of genetic modifications by altering their extracellular contextual signals. […] However, this line adopts an IDMS state when detached from its substratum and cultured in suspension (FIG. 1F). […] This morphologic alteration was accompanied by upregulation of mesenchymal markers (fibronectin) and downregulation of epithelial proteins (cytokeratin 8/18 and E-cadherin) (FIG. 1G). […]
# [8] = tested on: MDA-MB-157 cells (CD44hiCD24lo and CD44loCD24hi fractions); assay: Flow cytometry of CD44/CD24 fractions of treated MDA-MB-157 cells; type: cell-based, human; conditions: suspension, 36 h; FIG. 1J
# Procedure: (J) MDA-MB-157 cells were treated with Cmp308, paclitaxel or DMSO solvent in suspension for 36 h and analyzed by flow cytometry for CD44 and CD24 expression. The percentage of CD44^hiCD24^lo and CD44^loCD24^hi cells in were quantified and normalized relative to DMSO controls.
# FACS analysis was performed according to the manufacturer's protocol (BD Biosciences). Reagents used in FACS were as follows: APC-conjugated anti-CD44 antibody (clone G44-26), PE-conjugated anti-CD24 antibody (clone ML5), and propidium iodide (5 μg/ml) (BD Bioscience).
# [9] = tested on: protein secretion of HMLE cells; assay: 35S-methionine/cysteine labeling of secreted proteins, HMLE cells; type: cell-based, human; conditions: control experiment; data not shown
# Procedure: (F) Autoradiograph showing ^35S-methionine/cysteine-labeled secreted proteins in IDMS (HMLE_shEcad, HMLE_Twist) and control (HMLE_shGFP) cells. Secreted proteins were harvested at the indicated time points. Quantification of signal in each lane is provided in arbitrary units. The indicated proteins were identified by mass-spectrometry.
# as §3
# To determine whether overall protein secretion was elevated in IDMS cells, total protein synthesis and secretion was measured using ^35S-methionine/cysteine. Labeled proteins secreted by cells into the culture medium (“secretome”) were visualized by gel electrophoresis and autoradiography. After three hours of ^35S-methionine/cysteine labeling, we observed a 9.6-fold and 13.7-fold increase in the secretome of IDMS cells (HMLE_shEcad and HMLE_Twist, resp.) relative to the control epithelial cells (FIG. 4F).
# [10] = 6 h treatment (Cmp302, Dev4, Dev2) or 4 h (DTT, A23187, tunicamycin, thapsigargin), IDMS versus non-IDMS cells
molecule,measurement,setting,value
"O[C@H](CS)[C@H](O)CS (racemic) [DTT, dithiothreitol]",killing of IDMS cells relative to control HMLE cells,[1],selective lethality
same,"UPR signaling (XBP1 splicing, eIF2α phosphorylation, ATF6 activation)",[2]; [10],selectively induced
C/C=C(/C)C(=O)O[C@H]1C(C)=C2[C@H]([C@@H]1OC(=O)CCCCCCC)[C@@](C)(OC(C)=O)C[C@H](OC(=O)CCC)[C@@]1(O)[C@H]2OC(=O)[C@@]1(C)O [thapsigargin],tumorsphere-forming ability relative to paclitaxel- or DMSO-treated cells,SUM159 cancer cells [3],significantly reduced
same,protein secretion relative to paclitaxel- and DMSO-treated cells,[4],strongly inhibited
same,killing of IDMS cells relative to control HMLE cells,[1],selective lethality
same,migratory ability relative to paclitaxel-pretreated cells,SUM159 cancer cells [5],strongly impaired
same,"UPR signaling (XBP1 splicing, eIF2α phosphorylation, ATF6 activation)",[2]; [10],selectively induced
same,sensitization of pretreated cells to chemotherapy,SUM159 cells,sensitized SUM159 cells to paclitaxel and doxorubicin
"O=C(/C=C/c1ccccc1)NC(NC(=S)Nc1cccc2cccnc12)C(Cl)(Cl)Cl (centres unmarked) [Salubrinal, salubrinal]",sensitization to thapsigargin treatment,[6],"further sensitized HMLER-Twist IDMS, but not control cells"
CNc1ccc2oc(C[C@H]3O[C@@]4(CC[C@H]3C)O[C@H]([C@H](C)C(=O)c3ccc[nH]3)[C@H](C)C[C@H]4C)nc2c1C(=O)O [A23187],killing of IDMS cells relative to control HMLE cells,[1],selective lethality
same,"UPR signaling (XBP1 splicing, eIF2α phosphorylation, ATF6 activation)",[2],selectively induced
CC(=O)O[C@H]1C(=O)[C@@]2(C)[C@H]([C@H](OC(=O)c3ccccc3)[C@]3(O)C[C@H](OC(=O)[C@H](O)[C@@H](NC(=O)c4ccccc4)c4ccccc4)C(C)=C1C3(C)C)[C@]1(OC(C)=O)CO[C@@H]1C[C@@H]2O [paclitaxel],effect on IDMS cells in mixed populations,[7],selective expansion of IDMS cells
same,toxicity towards IDMS MDA-MB-157 cells in suspension relative to non-IDMS cells in adherent conditions,MDA-MB-157 cells,decreased toxicity
same,preferential toxicity towards CD44hiCD24lo versus CD44loCD24hi fraction,[8],did not exhibit this preferential toxicity
"C[C@H]1CCC/C=C/[C@@H]2C[C@H](O)C[C@H]2[C@H](O)/C=C/C(=O)O1 [Brefeldin-A, Brefeldin A]",protein secretion,[9],completely abolished protein secretion
COc1cccc2c1C(=O)c1c(O)c3c(c(O)c1C2=O)C[C@@](O)(C(=O)CO)C[C@@H]3O[C@H]1C[C@H](N)[C@H](O)[C@H](C)O1 [doxorubicin],effect on IDMS cells in mixed populations,[7],selective expansion of IDMS cells
tunicamycin,tumorsphere-forming ability relative to paclitaxel- or DMSO-treated cells,SUM159 cancer cells [3],significantly reduced
same,protein secretion relative to paclitaxel- and DMSO-treated cells,[4],strongly inhibited
same,IC50 (toxicity),"[1]; both IDMS and control HMLE cells, data not shown",< 10^−10 g/ml
same,migratory ability relative to paclitaxel-pretreated cells,SUM159 cancer cells [5],strongly impaired
same,"UPR signaling (XBP1 splicing, eIF2α phosphorylation, ATF6 activation)",[2]; [10],more readily induced in IDMS cells
same,dose required for UPR induction relative to toxic dose,"[2]; IDMS cells, FIG. 3E",100 fold
same,sensitization of pretreated cells to chemotherapy,SUM159 cells,sensitized SUM159 cells to paclitaxel and doxorubicin

# — US9316631B1, “ER-stress inducing compounds and methods of use thereof” (Whitehead Institute for Biomedical Research, priority 2012, dated 2016)
